This test concerns TEAD Reporter-MCF7 cell line. Put plainly: YAP/TEAD cellular activity assay: inhibition of TEAD-Luc activity in TEAD Reporter-MCF7 cell line. In kind it is cell-based, human. As to conditions: Homo sapiens, MCF7, 24 h, TEAD Reporter-MCF7 cells, 24 hours incubation with compound, luciferase readout. Summed up:
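MCF7 cells stably carrying a TEAD-responsive firefly luciferase reporter were seeded at 10,000 cells/well, grown 20-24 h, then exposed to compounds for 24 h at 37° C. Luciferase read by ONE-Glo EX luminescence; percent inhibition and EC50 derived.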
In the case of `CNS(=O)(=O)c1ccc(Oc2ccc(C(F)(F)F)cc2)c(-c2cnc3ccccn23)c1` [1-20, 3-(imidazo[1,2-a]pyridin-3-yl)-N-methyl-4-[4-(trifluoromethyl)phenoxy]benzene-1-sulfonamide], the EC50 is 7140 nM. As for `CNS(=O)(=O)c1ccc(Oc2ccc(C(F)(F)F)cc2)c(-c2cc3ccccn3n2)c1` [1-35, N-methyl-3-(pyrazolo[1,5-a]pyridin-2-y1)-4-[4-(trifluoromethyl)phenoxy]benzene-1-sulfonamide], the figure is 99.4 nM; as for `CNS(=O)(=O)c1ccc(Oc2ccc(C(F)(F)F)nc2)c(-c2cn3c(n2)CCC3)c1` [4-2, 3-(6,7-dihydro-5H-pyrrolo[1,2-a]imidazol-2-yl)-N-methyl-4-((6-(trifluoromethyl)pyridin-3-yl)oxy)benzenesulfonamide], 261 nM. Turning to `CNS(=O)(=O)c1ccc(Oc2ccc(C(F)(F)F)cc2)c(-c2cc3c(s2)CCNC3)c1` [1-16, N-methyl-3-(4,5,6,7-tetrahydrothieno[3,2-c]pyridin-2-yl)-4-[4-(trifluoromethyl)phenoxy]benzene-1-sulfonamide], the concentration giving a half-maximal response (EC50) came out at 4020 nM.

As to `CNS(=O)(=O)c1ccc(Oc2ccc(C(F)(F)F)cc2)c(-c2cn3ccccc3n2)c1` [1-27, 3-(imidazo[1,2-a]pyridin-2-yl)-N-methyl-4-[4-(trifluoromethyl)phenoxy]benzene-1-sulfonamide], the EC50 worked out at 28.4 nM. Consider `CNS(=O)(=O)c1ccc(Oc2ccc(SC(F)(F)F)cc2)c(-c2cn3c(n2)CCC3)c1` [4-17, 3-(6,7-dihydro-5H-pyrrolo[1,2-a]imidazol-2-yl)-N-methyl-4-{4-[(trifluoromethyl)sulfanyl]phenoxy}benzene-1-sulfonamide], for which the EC50 turned out to be 14 nM.

By EC50 is commonly meant the midpoint of the concentration-response curve.

Source of the values: US20240083903A1, “ARYL ETHER COMPOUNDS AS TEAD MODULATORS” (Merck Sharp& Dohme LLC, priority 2021, published 2024).
